pIC50: −log10 of the molar value. Calls of active or inactive are those of the source. No cut-off for these calls is given here.
Assays:
CYP1A2 = molecular target: T1, CYP1A2 (Homo sapiens, UniProt P05177); test: Inhibition of CYP1A2 in human liver microsomes at 10 uM measured after 20 mins in presence of NADPH by LC-MS/MS analysis relative to control; type: ADME
T1 sequence (P05177 whole entry): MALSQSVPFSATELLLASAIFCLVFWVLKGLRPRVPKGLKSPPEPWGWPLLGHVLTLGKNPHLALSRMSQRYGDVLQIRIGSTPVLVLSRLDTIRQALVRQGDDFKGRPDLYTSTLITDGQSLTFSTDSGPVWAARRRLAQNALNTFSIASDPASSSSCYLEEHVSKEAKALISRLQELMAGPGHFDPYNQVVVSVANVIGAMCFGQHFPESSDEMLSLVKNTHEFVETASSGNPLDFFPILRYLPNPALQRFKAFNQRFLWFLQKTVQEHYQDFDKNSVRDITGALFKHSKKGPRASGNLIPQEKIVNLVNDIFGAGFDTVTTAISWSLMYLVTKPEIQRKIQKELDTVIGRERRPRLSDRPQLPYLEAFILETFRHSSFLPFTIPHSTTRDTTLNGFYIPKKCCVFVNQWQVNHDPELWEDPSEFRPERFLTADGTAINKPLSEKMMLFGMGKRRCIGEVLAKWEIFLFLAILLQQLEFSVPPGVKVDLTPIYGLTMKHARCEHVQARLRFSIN

[1] = AUC (0 to t) in Sprague-Dawley rat at 3 mg/kg, iv by LC-MS/MS analysis; type: ADME, organism-based; set-up: dose 3 mg/kg; details: in vivo
[2] = Intrinsic clearance in rat liver microsomes at 1 uM preincubated for 10 mins followed by NADPH addition and measured after 1 hr by LC-MS/MS analysis; type: ADME, Microsome; details: time 70 min, read-out: CLH
[3] = Half life in BALB/c mouse at 10 mg/kg, po by LC-MS/MS analysis; type: ADME, organism-based; details: in vivo
Cytochrome P450 1A2 = molecular target: T2, Cytochrome P450 1A2 (Homo sapiens, UniProt P05177); test: Time-dependent inhibition of CYP1A2 in human liver microsomes at 10 uM in presence of NADPH by LC-MS/MS analysis; type: ADME
T2 sequence (P05177 whole entry): T1 sequence (P05177 whole entry)

CDK9/cyclin T1 = CDK9/cyclin T1 (Homo sapiens, UniProt P50750)
Description: Inhibition of CDK9/cyclin T1 (unknown origin)

COLO 205 = test: Antitumor activity against human COLO 205 cells xenografted in BALB/c mouse assessed as reduction in tumor volume at 3 mg/kg, po qd for 11 days measured post last dose by caliper method; type: functional, organism-based; details: time 11.0 day
[4] = Toxicity in human U-87 MG cells xenografted BALB/c mouse assessed as body weight loss at 10 mg/kg, po qd for 16 days relative to control; type: organism-based; details: in vivo, 384 h, time 16 day
CDK2/Cyclin A2 = CDK2/Cyclin A2 (Homo sapiens, UniProt P24941)
Description: Inhibition of CDK2/cyclin A2 (unknown origin)

Cytochrome P450 2C19 = Cytochrome P450 2C19 (Homo sapiens, UniProt P33261); test: Time-dependent inhibition of CYP2C19 in human liver microsomes at 10 uM in presence of NADPH by LC-MS/MS analysis; type: ADME
CYP3A4 = CYP3A4 (Homo sapiens, UniProt P08684); test: Inhibition of CYP3A4 in human liver microsomes at 10 uM measured after 20 mins in presence of NADPH by LC-MS/MS analysis relative to control; type: ADME
Cytochrome P450 2D6 = Cytochrome P450 2D6 (Homo sapiens, UniProt P10635); test: Time-dependent inhibition of CYP2D6 in human liver microsomes at 10 uM in presence of NADPH by LC-MS/MS analysis; type: ADME
Cytochrome P450 2D6, sequence (P10635 whole entry): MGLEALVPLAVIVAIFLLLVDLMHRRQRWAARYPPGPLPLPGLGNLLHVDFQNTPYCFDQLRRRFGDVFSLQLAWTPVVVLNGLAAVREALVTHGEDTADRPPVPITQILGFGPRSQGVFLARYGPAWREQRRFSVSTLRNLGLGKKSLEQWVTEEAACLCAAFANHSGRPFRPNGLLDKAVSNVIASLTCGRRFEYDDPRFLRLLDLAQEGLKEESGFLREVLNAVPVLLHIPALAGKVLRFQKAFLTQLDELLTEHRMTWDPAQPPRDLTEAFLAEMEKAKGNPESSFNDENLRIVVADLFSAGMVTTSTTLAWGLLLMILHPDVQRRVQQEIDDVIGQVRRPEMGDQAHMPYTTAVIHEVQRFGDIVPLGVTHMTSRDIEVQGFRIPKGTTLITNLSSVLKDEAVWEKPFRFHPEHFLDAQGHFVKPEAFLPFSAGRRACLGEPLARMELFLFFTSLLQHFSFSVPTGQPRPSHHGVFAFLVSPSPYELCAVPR

CDK9/cyclin T1, sequence (O60563 whole entry): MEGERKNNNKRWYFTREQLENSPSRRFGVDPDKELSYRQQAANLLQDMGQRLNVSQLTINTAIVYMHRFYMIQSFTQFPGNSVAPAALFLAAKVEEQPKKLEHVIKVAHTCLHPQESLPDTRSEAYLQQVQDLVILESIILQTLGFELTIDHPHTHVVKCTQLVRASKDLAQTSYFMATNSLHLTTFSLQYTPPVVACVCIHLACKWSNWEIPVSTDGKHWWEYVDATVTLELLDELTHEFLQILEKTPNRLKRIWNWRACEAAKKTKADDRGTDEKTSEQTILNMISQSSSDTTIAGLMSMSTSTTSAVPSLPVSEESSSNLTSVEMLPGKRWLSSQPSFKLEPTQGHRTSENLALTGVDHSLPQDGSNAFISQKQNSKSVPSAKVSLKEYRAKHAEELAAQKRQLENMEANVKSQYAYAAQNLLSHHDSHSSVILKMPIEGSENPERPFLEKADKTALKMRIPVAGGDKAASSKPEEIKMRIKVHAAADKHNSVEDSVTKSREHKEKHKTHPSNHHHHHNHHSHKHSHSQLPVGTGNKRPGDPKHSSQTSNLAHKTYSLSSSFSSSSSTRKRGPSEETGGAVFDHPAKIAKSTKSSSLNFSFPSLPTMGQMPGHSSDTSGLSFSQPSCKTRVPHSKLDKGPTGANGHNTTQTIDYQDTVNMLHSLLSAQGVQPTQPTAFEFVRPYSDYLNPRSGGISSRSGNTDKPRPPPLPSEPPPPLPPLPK
CDK9/cyclin T1, sequence (P50750 whole entry): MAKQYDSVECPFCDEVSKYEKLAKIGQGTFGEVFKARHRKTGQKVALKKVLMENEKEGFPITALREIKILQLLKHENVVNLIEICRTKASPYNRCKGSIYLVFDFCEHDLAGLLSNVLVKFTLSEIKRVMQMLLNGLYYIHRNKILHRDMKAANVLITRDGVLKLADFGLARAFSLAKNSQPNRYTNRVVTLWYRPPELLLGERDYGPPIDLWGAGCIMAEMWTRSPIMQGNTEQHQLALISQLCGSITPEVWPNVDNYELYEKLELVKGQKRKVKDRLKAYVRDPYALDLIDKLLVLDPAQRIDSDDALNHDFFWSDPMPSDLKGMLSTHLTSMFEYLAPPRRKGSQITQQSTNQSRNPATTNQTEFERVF
CYP3A4, sequence (P08684 whole entry): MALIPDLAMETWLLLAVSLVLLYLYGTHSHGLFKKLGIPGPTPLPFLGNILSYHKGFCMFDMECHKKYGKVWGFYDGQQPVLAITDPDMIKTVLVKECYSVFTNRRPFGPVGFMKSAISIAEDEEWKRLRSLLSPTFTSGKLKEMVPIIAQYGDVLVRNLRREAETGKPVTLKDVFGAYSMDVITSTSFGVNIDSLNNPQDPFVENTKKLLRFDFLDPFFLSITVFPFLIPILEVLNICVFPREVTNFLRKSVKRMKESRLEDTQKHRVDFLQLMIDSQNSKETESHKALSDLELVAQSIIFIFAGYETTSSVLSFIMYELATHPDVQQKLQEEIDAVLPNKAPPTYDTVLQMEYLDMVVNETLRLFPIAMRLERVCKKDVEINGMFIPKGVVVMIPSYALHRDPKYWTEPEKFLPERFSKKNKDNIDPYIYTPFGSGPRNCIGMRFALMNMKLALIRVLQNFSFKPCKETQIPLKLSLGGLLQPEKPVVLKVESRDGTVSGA
Cytochrome P450 2C19, sequence (P33261 whole entry): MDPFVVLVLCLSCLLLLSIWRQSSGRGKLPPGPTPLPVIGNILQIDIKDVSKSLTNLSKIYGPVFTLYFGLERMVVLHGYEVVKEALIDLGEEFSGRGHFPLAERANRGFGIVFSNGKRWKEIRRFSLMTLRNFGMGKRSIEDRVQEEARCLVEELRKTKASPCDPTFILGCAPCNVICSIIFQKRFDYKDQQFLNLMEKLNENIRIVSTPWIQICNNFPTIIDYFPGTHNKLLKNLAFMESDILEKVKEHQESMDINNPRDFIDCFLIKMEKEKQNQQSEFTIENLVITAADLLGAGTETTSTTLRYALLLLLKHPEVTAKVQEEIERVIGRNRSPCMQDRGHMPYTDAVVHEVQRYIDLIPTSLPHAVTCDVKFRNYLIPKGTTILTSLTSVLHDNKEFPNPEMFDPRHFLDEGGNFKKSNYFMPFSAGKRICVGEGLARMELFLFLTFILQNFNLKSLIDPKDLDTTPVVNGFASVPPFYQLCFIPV

inhibition at […], 10 µM (CYP1A2): 17% | AUCt [1]: 0.861 µg·h/mL | microsomal CLint at 1 µM [2]: 54 µL/min/mg | half-life [3]: 4.08 h | TDI (Cytochrome P450 1A2): Not Active | pIC50 (CDK9/cyclin T1): 7.63 | pIC50 (CDK2/Cyclin A2): 7.72 | TDI (Cytochrome P450 2C19): Not Active | inhibition at […], 10 µM (CYP3A4): 8% | TDI (Cytochrome P450 2D6): Not Active
Compound: CC(=O)c1c(C)c2cnc(Nc3ccc(N4CCNCC4)cc3)nc2n2cc(C(C)C)nc12
Activity (COLO 205): Active | Activity [4]: < 20%

From ChEMBL document CHEMBL4765279, “Discovery of a novel series of imidazo[1',2':1,6]pyrido[2,3-d]pyrimidin derivatives as potent cyclin-dependent kinase 4/6 inhibitors” (Eur J Med Chem, 2020)
